Assay results reported in PubChem BioAssay (NCI).
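Following 48 hours of exposure in 96-well plates, responses at five concentrations were used to interpolate endpoints linearly. TGI denotes the concentration required for complete inhibition of growth.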

Assays:
Assay in all cases: DTP human tumour cell line panel, 48 h
[1] = tested on: PC-3 prostate
[2] = tested on: A498 renal
[3] = tested on: BT-549 breast
[4] = tested on: MDA-N
[5] = tested on: EKVX NSCLC
[6] = tested on: HOP-92 NSCLC
[7] = tested on: M14 melanoma
[8] = tested on: OVCAR-3 ovarian
[9] = tested on: A549 NSCLC
[10] = tested on: SF-268 CNS
[11] = tested on: ACHN renal

Row | SMILES | TGI [1] [µM] | TGI [2] [µM] | TGI [3] [µM] | TGI [4] [µM] | TGI [5] [µM] | TGI [6] [µM] | TGI [7] [µM] | TGI [8] [µM] | TGI [9] [µM] | TGI [10] [µM] | TGI [11] [µM]
1 | COC(=O)C1(C#N)C(C)(C)N=C(c2ccccc2)C12CCCCC2 (configuration not stated) | > 100 | > 100 | > 100 | > 100 | > 100 | > 100 | > 100 | > 100 | > 100 | > 100 | 
2 | O=C1CSC(c2ccccc2[N+](=O)[O-])N1c1ccc(-c2ccc(-n3c(-c4ccccc4)nc4ccccc4c3=O)cc2)cc1 (configuration not stated) | > 100 | > 100 | > 100 | > 100 | > 100 | > 100 | > 100 | > 100 | > 100 | > 100 | > 100
3 | COc1cc(/C=N/n2c(-c3ccccc3)nn(C(C)=O)c2=O)cc(OC)c1OC | > 81.8 | 23.3 | > 74.2 | 3.83 | 99.2 | > 89.7 | > 58.9 |  | > 94.6 | > 100 | > 64.6
4 | C=C(CCC/C(C)=C/C=C/[C@@H](C)CCCc1ccoc1)C[C@@H]1OC(=O)[C@H](C)[C@@H]1O | 15.6 | 15.3 | 17.1 | 21.5 | 19.4 | 19.6 | 19.9 | 16 | 17 | 18.5 | 16.2
5 | N#CC(Cc1ccccc1)N(CCC1=CCCCC1)Cc1ccccc1 (configuration not stated) | > 100 | > 100 | > 100 | > 100 | > 100 | > 100 | > 100 | > 100 | > 100 | > 100 | > 100
6 | CC[C@@]1(C)CCC2c3ccc(O)cc3CC[C@H]2C1C (some centres not stated) | 34 | 34 | 33.8 | 25.8 | 34 | 19.5 | 30.3 | 37 | 33.6 | 30.1 | 32.7
7 | O=C(c1ccccc1)c1ccc2[nH]c(-c3c(Cl)c(Cl)c(Cl)c(Cl)c3C(=O)N/N=C/c3cccc(Oc4ccccc4)c3)nc2c1 | > 100 |  | > 100 | > 100 | > 100 | > 100 | > 100 | > 100 | > 100 | > 100 | > 100
8 | CC(=O)Nc1c(C)cc2c(nc3n2CCC3OC(C)=O)c1[N+](=O)[O-] (configuration not stated) | > 100 | > 100 | > 100 | > 100 | > 100 | > 100 | > 100 | > 100 | > 100 | > 100 | > 100
9 | CN(C)CCn1c(=O)c2ccc(NCCN3CCNCC3)c3c(=O)c4ccccc4n(c1=O)c23 | 16.2 | 16.1 | 22.9 | 18.9 | 18.6 | 9.59 | 29 | 25.1 | 15.9 | 18.7 | 15.7
10 | O=c1c2cc3c(=O)n4c(cc(-c5ccccc5)c5cc(Cl)ccc54)nc3cc2nc2cc(-c3ccccc3)c3cc(Cl)ccc3n12 | > 100 | > 100 | > 100 | > 100 | > 100 | > 100 | > 100 | > 100 | > 100 | > 100 | > 100
